Molecular target: T1, Aurora A (Homo sapiens, UniProt O14965)
T1 construct: cell lysates from Jurkat cells (ATCC TIB-152) used; endogenous in cells; host or cells: Jurkat cells (ATCC TIB-152), treated with pervanadate
T1 sequence (O14965 1-403): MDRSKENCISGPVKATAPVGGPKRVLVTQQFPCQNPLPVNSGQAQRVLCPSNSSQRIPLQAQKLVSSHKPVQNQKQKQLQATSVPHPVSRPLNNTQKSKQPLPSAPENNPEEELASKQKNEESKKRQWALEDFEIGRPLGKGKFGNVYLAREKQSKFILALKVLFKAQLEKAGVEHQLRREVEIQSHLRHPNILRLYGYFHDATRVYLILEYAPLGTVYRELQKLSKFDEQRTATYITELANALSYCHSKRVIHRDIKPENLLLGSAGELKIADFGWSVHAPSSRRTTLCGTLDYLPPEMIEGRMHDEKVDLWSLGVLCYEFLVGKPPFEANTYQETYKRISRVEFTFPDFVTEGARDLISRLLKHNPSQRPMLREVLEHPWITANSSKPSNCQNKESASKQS
Assay: Kinobeads assay, Aurora A
Assay type: binding
Settings: for IC50: lysate of pervanadate-treated Jurkat cells, read-out: Inhibition values (IC50) Aur A
Procedure: The compounds of the present invention as described in the previous examples were tested in a Kinobeads™ assay as described for ZAP-70 (WO-A 2007/137867). Briefly, test compounds (at various concentrations) and the affinity matrix with the immobilized aminopyrido-pyrimidine ligand 24 were added to cell lysate aliquots and allowed to bind to the proteins in the lysate sample. After the incubation time the beads with captured proteins were separated from the lysate. Bound proteins were then eluted and the presence of JAK2 and JAK3 was detected and quantified using specific antibodies in a dot blot procedure and the Odyssey infrared detection system. Dose response curves for individual kinases were generated and IC50 values calculated. Kinobeads™ assays for ZAP-70 (WO-A 2007/137867) and for kinase selectivity profiling (WO-A 2006/134056) have been previously described.
The affinity matrix was washed two times with 15 mL of 1×DP buffer containing 0.2% NP40 (IGEPAL® CA-630, Sigma, #I3021) and then resuspended in 1×DP buffer containing 0.2% NP40 (3% beads slurry).
5×DP buffer 250 mM Tris-HCl pH 7.4, 25% Glycerol, 7.5 mM MgCl2, 750 mM NaCl, 5 mM Na3VO4; filter the 5×DP buffer through a 0.22 μm filter and store in aliquots at −80° C. The 5×DP buffer is diluted with H2O to 1×DP buffer containing 1 mM DTT and 25 mM NaF.
Stock solutions of test compounds were prepared in DMSO. In a 96 well plate 30 μL solution of diluted test compounds at 5 mM in DMSO were prepared. Starting with this solution a 1:3 dilution series (9 steps) was prepared. For control experiments (no test compound) a buffer containing 2% DMSO was used.
Cell lysate (approximately 50 mg protein per plate) was thawed in a water bath at room temperature and then stored on ice. To the thawed cell lysate 1×DP 0.8% NP40 buffer containing protease inhibitors (1 tablet for 25 mL buffer; EDTA-free protease inhibitor cocktail; Roche Diagnostics 1873580) was added in order to reach a final protein concentration of 10 mg/mL total protein. The diluted cell lysate was stored on ice. Mixed Molt4/Ramos lysate was prepared by combining one volume of Molt4 lysate and two volumes of Ramos lysate (ratio 1:2).
To a 96 well filter plate (Multiscreen HTS, BV Filter Plates, Millipore #MSBVN1250) were added per well: 100 μL affinity matrix (3% beads slurry), 3 μL of compound solution, and 50 μL of diluted lysate. Plates were sealed and incubated for 3 hours in a cold room on a plate shaker (Heidolph tiramax 1000) at 750 rpm. Afterwards the plate was washed 3 times with 230 μL washing buffer (1×DP 0.4% NP40). The filter plate was placed on top of a collection 1 plate (Greiner bio-one, PP-microplate 96 well V-shape, 65120) and the beads were then eluted with 20 μL of sample buffer (100 mM Tris, pH 7.4, 4% SDS, 0.00025% bromophenol blue, 20% glycerol, 50 mM DTT). The eluate was frozen quickly at −80° C. and stored at −20° C.
The kinases in the eluates were detected and quantified by spotting on nitrocellulose membranes and using a first antibody directed against the kinase of interest and a fluorescently labelled secondary antibody (anti-rabbit IRDye™ antibody 800 (Licor, #926-32211). The Odyssey Infrared Imaging system from LI-COR Biosciences (Lincoln, Nebr., USA) was operated according to instructions provided by the manufacturer (Schutz-Geschwendener et al, 2004. Quantitative, two-color Western blot detection with infrared fluorescence. Published May 2004 by LI-COR Biosciences, www.licor.com).
After spotting of the eluates the nitrocellulose membrane (BioTrace NT; PALL, #BTNT30R) was first blocked by incubation with Odyssey blocking buffer (LICOR, 927-40000) for 1 hour at room temperature. Blocked membranes were then incubated for 16 hours at the temperature shown in Table 5 with the first antibody diluted in Odyssey blocking buffer (LICOR #927-40000). Afterwards the membrane was washed twice for 10 minutes with PBS buffer containing 0.2% Tween 20 at room temperature. […]

| JAK3/AurA Fold Selectivity | IC50 [nM] | Structure (SMILES) |
| --- | --- | --- |
| 10-50 Fold | 100 to 1000 | NC(=O)CCn1cc(Nc2ncc3cnn(Cc4cccc(N5CCOCC5)c4)c3n2)cn1 [Example 14, 3-(4-((1-(3-Morpholinobenzyl)-1H-pyrazolo[3,4-d]pyrimidin-6-yl)amino)-1H-pyrazol-1-yl)propanamide] |
| 10-50 Fold | 1000 to 10000 | Cn1cc(Nc2ncc3cnn(Cc4cc(N5CCOCC5)ccc4F)c3n2)cn1 [Example 15, 1-(2-Fluoro-5-morpholinobenzyl)-N-(1-methyl-1H-pyrazol-4-yl)-1H-pyrazolo[3,4-d]pyrimidin-6-amine] |
| 10-50 Fold | 100 to 1000 | CN(C)C(=O)CCn1cc(Nc2ncc3cnn(Cc4cccc(N5CCOCC5)c4)c3n2)cn1 [Example 16, N,N-Dimethyl-3-(4-((1-(3-morpholinobenzyl)-1H-pyrazolo[3,4-d]pyrimidin-6-yl)amino)-1H-pyrazol-1-yl)propanamide] |
| >50 Fold | 1000 to 10000 | Cn1cc(Nc2ncc3cnn(Cc4c(F)c(F)cc(N5CCOCC5)c4F)c3n2)cn1 [Example 17, N-(1-Methyl-1H-pyrazol-4-yl)-1-(2,3,6-trifluoro-5-morpholinobenzyl)-1H-pyrazolo[3,4-d]pyrimidin-6-amine] |
| 10-50 Fold | 100 to 1000 | OCCCn1cc(Nc2ncc3cnn(Cc4cccc(N5CCOCC5)c4)c3n2)cn1 [Example 18, 3-(4-((1-(3-Morpholinobenzyl)-1H-pyrazolo[3,4-d]pyrimidin-6-yl)amino)-1H-pyrazol-1-yl)propan-1-ol] |
| 10-50 Fold | 1000 to 10000 | Cn1cc(Nc2ncc3cnn(Cc4cccc(N5CCC(F)(F)CC5)c4)c3n2)cn1 [Example 19, 1-(3-(4,4-Difluoropiperidin-1-yl)benzyl)-N-(1-methyl-1H-pyrazol-4-yl)-1H-pyrazolo[3,4-d]pyrimidin-6-amine] |
| 10-50 Fold | 100 to 1000 | O=C(CCn1cc(Nc2ncc3cnn(Cc4cccc(N5CCOCC5)c4)c3n2)cn1)N1CCCCC1 [Example 20, 3-(4-((1-(3-Morpholinobenzyl)-1H-pyrazolo[3,4-d]pyrimidin-6-yl)amino)-1H-pyrazol-1-yl)-1-(piperidin-1-yl)propan-1-one] |
| >50 Fold | 100 to 1000 | Cn1cc(Nc2ncc3cnn(Cc4cccc(N5CCOCC5)c4F)c3n2)cn1 [Example 21, 1-(2-Fluoro-3-morpholinobenzyl)-N-(1-methyl-1H-pyrazol-4-yl)-1H-pyrazolo[3,4-d]pyrimidin-6-amine] |
| 10-50 Fold | 100 to 1000 | Cn1cc(Nc2ncc3cnn(Cc4cccc(N5CCNCC5)c4)c3n2)cn1 [Example 22, N-(1-Methyl-1H-pyrazol-4-yl)-1-(3-(piperazin-1-yl)benzyl)-1H-pyrazolo[3,4-d]pyrimidin-6-amine] |
| 3-10 Fold | 100 to 1000 | FC(F)Cn1cc(Nc2ncc3cnn(Cc4cccc(N5CCOCC5)c4)c3n2)cn1 [Example 23, N-(1-(2,2-Difluoroethyl)-1H-pyrazol-4-yl)-1-(3-morpholinobenzyl)-1H-pyrazolo[3,4-d]pyrimidin-6-amine] |
| 10-50 Fold | 100 to 1000 | CNC(=O)CCn1cc(Nc2ncc3cnn(Cc4cccc(N5CCOCC5)c4)c3n2)cn1 [Example 24, N-Methyl-3-(4-((1-(3-morpholinobenzyl)-1H-pyrazolo[3,4-d]pyrimidin-6-yl)amino)-1H-pyrazol-1-yl)propanamide] |
| 10-50 Fold | 100 to 1000 | Cn1cc(Nc2ncc3cnn(Cc4cccc(N5CCS(=O)(=O)CC5)c4)c3n2)cn1 [Example 25, 4-(3-((6-((1-Methyl-1H-pyrazol-4-yl)amino)-1H-pyrazolo[3,4-d]pyrimidin-1-yl)methyl)phenyl)thiomorpholine 1,1-dioxide] |
| 3-10 Fold | 100 to 1000 | Cn1cc(Nc2ncc3cnn(Cc4cccc(N5CC6CCC(C5)O6)c4)c3n2)cn1 [Example 26] |
| 10-50 Fold | 100 to 1000 | Cn1cc(Nc2ncc3cnn(Cc4cccc(N5CCOCC5=O)c4)c3n2)cn1 [Example 27, 4-(3-((6-((1-Methyl-1H-pyrazol-4-yl)amino)-1H-pyrazolo[3,4-d]pyrimidin-1-yl)methyl)phenyl)morpholin-3-one] |
| >50 Fold | 100 to 1000 | CN(C)CCCn1cc(Nc2ncc3cnn(Cc4cccc(N5CCOCC5=O)c4)c3n2)cn1 [Example 28, 4-(3-((6-((1-(3-(Dimethylamino)propyl)-1H-pyrazol-4-yl)amino)-1H-pyrazolo[3,4-d]pyrimidin-1-yl)methyl)phenyl)morpholin-3-one] |
| 3-10 Fold | 100 to 1000 | O=C1COCCN1c1cccc(Cn2ncc3cnc(Nc4cnn(CCO)c4)nc32)c1 [Example 29, 4-(3-((6-((1-(2-Hydroxyethyl)-1H-pyrazol-4-yl)amino)-1H-pyrazolo[3,4-d]pyrimidin-1-yl)methyl)phenyl)morpholin-3-one] |
| 10-50 Fold | 100 to 1000 | O=C1CCCN1CCCn1cc(Nc2ncc3cnn(Cc4cccc(N5CCOCC5)c4)c3n2)cn1 [Example 30, 1-(3-(4-((1-(3-Morpholinobenzyl)-1H-pyrazolo[3,4-d]pyrimidin-6-yl)amino)-1H-pyrazol-1-yl)propyl)pyrrolidin-2-one] |
| 3-10 Fold | 100 to 1000 | CN(C)CC1(Cn2cc(Nc3ncc4cnn(Cc5cccc(N6CCOCC6)c5)c4n3)cn2)COC1 [Example 31, N-(1-((3-((Dimethylamino)methyl)oxetan-3-yl)methyl)-1H-pyrazol-4-yl)-1-(3-morpholinobenzyl)-1H-pyrazolo[3,4-d]pyrimidin-6-amine] |
| 10-50 Fold | 1000 to 10000 | CC(CN(C)C)Cn1cc(Nc2ncc3cnn(Cc4cccc(N5CCOCC5)c4)c3n2)cn1 (stereo not drawn) [Example 32, N-(1-(3-(Dimethylamino)-2-methylpropyl)-1H-pyrazol-4-yl)-1-(3-morpholinobenzyl)-1H-pyrazolo[3,4-d]pyrimidin-6-amine] |
| >50 Fold | 1000 to 10000 | CN(C)CC(O)Cn1cc(Nc2ncc3cnn(Cc4cccc(N5CCOCC5)c4)c3n2)cn1 (stereo not drawn) [Example 33, 1-(Dimethylamino)-3-(4-((1-(3-morpholinobenzyl)-1H-pyrazolo[3,4-d]pyrimidin-6-yl)amino)-1H-pyrazol-1-yl)propan-2-ol] |
| 10-50 Fold | 100 to 1000 | NCCCn1cc(Nc2ncc3cnn(Cc4cccc(N5CCOCC5)c4)c3n2)cn1 [Example 34, N-(1-(3-Aminopropyl)-1H-pyrazol-4-yl)-1-(3-morpholinobenzyl)-1H-pyrazolo[3,4-d]pyrimidin-6-amine] |
